Source: patent publication US8987195B2 (priority 2012, dated 2015)
Where two headings read alike, the source gives them in different places.

What was measured:
[1] = rcm bond
[2] = test system: HCV genotype 1b replicon; assay: HCV replicon assay, genotype 1b replicon EC50; assay type: cell-based, Hepatitis C virus; conditions: Hepatitis C virus, genotype 1b replicon; read-out: EC50 [gt-1b]
In short: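 Compound dilution series incubated 24-48 h, G418 absent, with HCV genotype 1b replicon cell lines kept under G418 selection beforehand. Luciferase signal or replicon RNA, by ^32P hybridization/protection or TaqMan normalized to cyclophilin A, was measured after washing and lysis. Four-parameter fitting against DMSO control gave EC50.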

[3] = target: HCV NS3/4A protease genotype 1b (Hepatitis C virus genotype 1b, UniProt P26663); assay: HCV NS3/4A protease time-resolved fluorescence (TRF) assay, Ki against genotype 1b; assay type: biochemical; conditions: IC50 [gt-1b] (nM), NS3/4A genotype 1b, enzyme 0.2 nM
In short: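 Ki values come from IC50 fits corrected for substrate concentration and KM. The time-resolved fluorescence protease reaction used 25 nM peptide substrate, 2.5 h, room temperature, pH 7.5 HEPES buffer, after 30 min enzyme–inhibitor preincubation.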

[4] = from Boc-(2S)-2-aminonon-8-enoyl-Hyp-(vinylACCA)-OMe?; rcm bond; 15-membered ring; Hoveyda-Grubbs 1st gen; DCM; 9.85 mM; 40.0 °C

HCV NS3/4A protease genotype 1b, sequence (P26663 1027-1657): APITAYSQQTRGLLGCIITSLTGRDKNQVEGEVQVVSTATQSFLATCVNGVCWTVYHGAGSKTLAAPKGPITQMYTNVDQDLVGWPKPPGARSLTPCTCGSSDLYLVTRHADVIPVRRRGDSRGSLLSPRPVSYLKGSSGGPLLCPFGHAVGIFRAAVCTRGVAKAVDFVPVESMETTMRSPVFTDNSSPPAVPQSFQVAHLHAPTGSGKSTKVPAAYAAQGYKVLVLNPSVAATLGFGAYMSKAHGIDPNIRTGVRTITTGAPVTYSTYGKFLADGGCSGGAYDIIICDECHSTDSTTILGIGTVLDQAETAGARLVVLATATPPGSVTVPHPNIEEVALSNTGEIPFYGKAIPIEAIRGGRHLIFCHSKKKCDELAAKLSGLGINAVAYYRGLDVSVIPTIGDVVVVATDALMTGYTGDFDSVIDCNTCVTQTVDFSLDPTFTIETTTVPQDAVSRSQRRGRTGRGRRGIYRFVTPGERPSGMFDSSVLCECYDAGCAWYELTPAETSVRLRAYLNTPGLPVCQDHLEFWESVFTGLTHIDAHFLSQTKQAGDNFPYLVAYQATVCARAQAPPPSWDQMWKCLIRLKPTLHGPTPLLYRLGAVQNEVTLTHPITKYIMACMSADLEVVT
HCV NS3/4A protease genotype 1b, sequence (P26663 1658-1711): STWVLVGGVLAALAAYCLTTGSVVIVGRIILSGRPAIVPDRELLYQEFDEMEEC

COCC1(S(=O)(=O)NC(=O)[C@@]23C[C@H]2/C=C\CCCCC[C@H](NC(=O)OC(C)(C)C)C(=O)N2C[C@@]4(CCc5c(c(C(F)(F)F)nc6ccc(OC)cc56)O4)C[C@H]2C(=O)N3)CC1 [Example 49, tert-Butyl ((2R,6S,13AS,14AR,16AS,Z)-9′-methoxy-14a-(((1-(methoxymethyl)cyclopropyl)sulfonyl)carbamoyl)-5,16-dioxo-5′-(trifluoromethyl)-1′,2′,3,5,6,7,8,9,10,11, 13A,14,14A,15,16,16A-hexadecahydro-1H-spiro[cyclopropa[e]pyrrolo[1,2-A][1,4]diazacyclopentadecine-2,3′-pyrano[2,3-c]quinolin]-6-yl)carbamate]
ring closure, yield of all isomers ([1]; from C=CCCCCC[C@H](NC(=O)OC(C)(C)C)C(=O)N1C[C@@]2(CCc3c(c(C(F)(F)F)nc4ccc(OC)cc34)O2)C[C@H]1C(=O)N[C@]1(C(=O)NS(=O)(=O)C2(COC)CC2)C[C@H]1C=C, Zhan's catalyst, DCE, 2.9 mM, 80.0 °C, 4.0 h): 33%
EC50 [2]: 9.13 nM
IC50 [3]: 0.014 nM

CCOC(=O)[C@@]12C[C@H]1C=CCCCCC[C@H](NC(=O)OC(C)(C)C)C(=O)N1C[C@@]3(CCc4c(c(C)nc5ccc(F)cc45)O3)C[C@H]1C(=O)N2
ring closure, yield of all isomers ([1]; from C=CCCCCC[C@H](NC(=O)OC(C)(C)C)C(=O)N1C[C@@]2(CCc3c(c(C)nc4ccc(F)cc34)O2)C[C@H]1C(=O)N[C@]1(C(=O)OCC)C[C@H]1C=C, Zhan's catalyst, DCE, 2.83 mM, 75.0 °C, 4.0 h): 47%

CCOC(=O)[C@@]12C[C@H]1C=CCCCCC[C@H](NC(=O)OC(C)(C)C)C(=O)N1C[C@@]3(CCc4c(c(C)nc5ccc(C)cc45)O3)C[C@H]1C(=O)N2
ring closure, yield of all isomers ([1]; from C=CCCCCC[C@H](NC(=O)OC(C)(C)C)C(=O)N1C[C@@]2(CCc3c(c(C)nc4ccc(C)cc34)O2)C[C@H]1C(=O)N[C@]1(C(=O)OCC)C[C@H]1C=C, Zhan's catalyst, DCE, 3.55 mM, 65.0 °C, 3.0 h): 68%

Cc1nc2ccccc2c2c1O[C@]1(CC2)C[C@H]2C(=O)N[C@]3(C(=O)NS(=O)(=O)C4(C)CC4)C[C@H]3C=CCCCCC[C@H](NC(=O)OC(C)(C)C)C(=O)N2C1
ring closure, yield of all isomers ([1]; from C=CCCCCC[C@H](NC(=O)OC(C)(C)C)C(=O)N1C[C@@]2(CCc3c(c(C)nc4ccccc34)O2)C[C@H]1C(=O)N[C@]1(C(=O)NS(=O)(=O)C2(C)CC2)C[C@H]1C=C, Zhan's catalyst, DCE, 2.5 mM, 65.0 °C, 7.0 h): 62.9%

COc1ccc2nc(C3CC3)c3c(c2c1)CC[C@]1(C[C@H]2C(=O)N[C@]4(C(=O)NS(=O)(=O)C5(C)CC5)C[C@H]4/C=C\CCCCC[C@H](NC(=O)OC(C)(C)C)C(=O)N2C1)O3 [Example 16, tert-Butyl (2R,6S,13aS,14aR,16aS,Z)-5′-cyclopropyl-9′-methoxy-14a-(1-methylcyclopropylsulfonylcarbamoyl)-5,16-dioxo-1′,2′,3,5,6,7,8,9,10,11,13a,14,14a,15,16, 16a-hexadecahydro-1H-spiro[cyclopropa[e]pyrrolo[1,2-a][1,4]diazacyclopentadecine-2,3′-pyrano[2,3-c]quinoline]-6-ylcarbamate]
ring closure, yield of all isomers ([1]; from C=CCCCCC[C@H](NC(=O)OC(C)(C)C)C(=O)N1C[C@@]2(CCc3c(c(C4CC4)nc4ccc(OC)cc34)O2)C[C@H]1C(=O)N[C@]1(C(=O)NS(=O)(=O)C2(C)CC2)C[C@H]1C=C, Zhan's catalyst, DCE, 2.48 mM, 75.0 °C, 4.0 h): 82.6%
EC50 [2]: 0.69 nM
IC50 [3]: 0.009 nM

COC(=O)[C@@]12C[C@H]1/C=C\CCCCC[C@H](NC(=O)OC(C)(C)C)C(=O)N1C[C@H](O)C[C@H]1C(=O)N2
ring closure, isolated yield [4]: 74%
ring closure, yield of all isomers ([1]; from C=CCCCCC[C@H](NC(=O)OC(C)(C)C)C(=O)N1C[C@H](O)C[C@H]1C(=O)N[C@]1(C(=O)OC)C[C@H]1C=C, Grubbs-Hoveyda 1st generation catalyst, DCM, 9.85 mM, 40.0 °C, 40.0 h): 74%

CC(C)(C)OC(=O)N[C@H]1CCCCC/C=C\[C@@H]2C[C@@]2(C(=O)NS(=O)(=O)C2(C)CC2)NC(=O)[C@@H]2C[C@]3(CCc4c(c(CO)nc5ccccc45)O3)CN2C1=O
ring closure, yield of all isomers ([1]; from C=CCCCCC[C@H](NC(=O)OC(C)(C)C)C(=O)N1C[C@@]2(CCc3c(c(CO)nc4ccccc34)O2)C[C@H]1C(=O)N[C@]1(C(=O)NS(=O)(=O)C2(C)CC2)C[C@H]1C=C, Zhan's catalyst, DCE, 2.0 mM, 65.0 °C, 2.0 h): 45.1%

CCOC(=O)[C@@]12C[C@H]1C=CCCCCC[C@H](NC(=O)OC(C)(C)C)C(=O)N1C[C@@]3(CCc4c(c(C)nc5c(C(F)(F)F)cccc45)O3)C[C@H]1C(=O)N2
ring closure, yield of all isomers ([1]; from C=CCCCCC[C@H](NC(=O)OC(C)(C)C)C(=O)N1C[C@@]2(CCc3c(c(C)nc4c(C(F)(F)F)cccc34)O2)C[C@H]1C(=O)N[C@]1(C(=O)OCC)C[C@H]1C=C, Zhan's catalyst, DCE, 3.36 mM, 65.0 °C, 3.0 h): 50%

CC(C)(C)OC(=O)N[C@H]1CCCCCC=C[C@@H]2C[C@@]2(C(=O)NS(=O)(=O)C2(C)CC2)NC(=O)[C@@H]2C[C@]3(CCc4c(c(C(F)(F)F)nc5ccccc45)O3)CN2C1=O
ring closure, yield of all isomers ([1]; from C=CCCCCC[C@H](NC(=O)OC(C)(C)C)C(=O)N1C[C@@]2(CCc3c(c(C(F)(F)F)nc4ccccc34)O2)C[C@H]1C(=O)N[C@]1(C(=O)NS(=O)(=O)C2(C)CC2)C[C@H]1C=C, Zhan's catalyst, DCE, 2.94 mM, 75.0 °C): 73.4%
